Measurements reported in article PMC6651613, “Identification and Characterization of trans-Isopentenyl Diphosphate Synthases Involved in Herbivory-Induced Volatile Terpene Formation in Populus trichocarpa” (Molecules, 2019).

Key:
Test in all cases: LC-MS/MS product analysis
Format in all cases: biochemical
Conditions in all cases: 50 uM IPP and 50 uM DMAPP, 10 mM MgCl2, 0.1 mM MnCl2, pH 7.2, 30 °C, 1 h
PtFPPS1 = target: T1, PtFPPS1 (Populus trichocarpa, UniProt A0A514TNK7)
T1 construct: full-length ORF, N-terminal His tag (pASK-IBA37+), E. coli TOP10, Ni-NTA purified; cloning primer encodes MADLKSTF
T1 sequence (A0A514TNK7 1-342): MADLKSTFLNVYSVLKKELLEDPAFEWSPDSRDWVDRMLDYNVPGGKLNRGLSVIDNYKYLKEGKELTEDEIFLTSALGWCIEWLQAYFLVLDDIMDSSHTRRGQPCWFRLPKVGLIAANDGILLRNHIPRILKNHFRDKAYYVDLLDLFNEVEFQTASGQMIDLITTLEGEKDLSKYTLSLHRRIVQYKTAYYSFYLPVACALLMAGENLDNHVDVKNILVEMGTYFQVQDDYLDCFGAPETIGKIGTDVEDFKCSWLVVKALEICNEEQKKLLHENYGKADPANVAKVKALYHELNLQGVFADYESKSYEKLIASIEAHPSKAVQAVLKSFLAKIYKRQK

[1] = target: T2, PtGPPS1.LSU + PtGPPS.SSU1 (Populus trichocarpa, UniProt A0A514TNQ6)
T2 construct: equal amounts of separately purified LSU (delta71) and SSU1 (delta41) mixed; C-terminal His tags, E. coli TOP10; heterodimer proposed, not isolated; with Geranyl diphosphate synthase small subunit 1

PtGPPS1.LSU = target: T3, PtGPPS1.LSU (Populus trichocarpa, UniProt A0A514TNQ6)
T3 construct: N-terminally truncated ORF (delta71, signal peptide removed), C-terminal His tag (pASK-IBA33+), E. coli TOP10, Ni-NTA purified; cloning primer encodes MPTFDFKSY

PtGPPS2.LSU = target: T4, PtGPPS2.LSU (Populus trichocarpa, UniProt A0A514TNS4)
T4 construct: N-terminally truncated ORF (delta72, signal peptide removed), C-terminal His tag (pASK-IBA33+), E. coli TOP10, Ni-NTA purified; cloning primer encodes MPTFDFKSY

[2] = target: T5, PtGPPS2.LSU + PtGPPS.SSU1 (Populus trichocarpa, UniProt A0A514TNS4)
T5 construct: separately purified LSU (delta72) and SSU1 (delta41) mixed; C-terminal His tags, E. coli TOP10; heterodimer proposed, not isolated; with Geranyl diphosphate synthase small subunit 1
T5 sequence (A0A514TNS4 71-366): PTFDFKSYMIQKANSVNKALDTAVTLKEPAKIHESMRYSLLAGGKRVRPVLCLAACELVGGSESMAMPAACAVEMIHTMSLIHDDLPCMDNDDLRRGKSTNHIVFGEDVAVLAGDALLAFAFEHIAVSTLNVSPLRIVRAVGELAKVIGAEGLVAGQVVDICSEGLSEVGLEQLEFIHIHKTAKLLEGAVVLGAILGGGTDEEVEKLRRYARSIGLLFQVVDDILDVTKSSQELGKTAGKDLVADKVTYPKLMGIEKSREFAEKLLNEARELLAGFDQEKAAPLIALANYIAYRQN
T5 sequence (A0A514TNK9 42-312 partner): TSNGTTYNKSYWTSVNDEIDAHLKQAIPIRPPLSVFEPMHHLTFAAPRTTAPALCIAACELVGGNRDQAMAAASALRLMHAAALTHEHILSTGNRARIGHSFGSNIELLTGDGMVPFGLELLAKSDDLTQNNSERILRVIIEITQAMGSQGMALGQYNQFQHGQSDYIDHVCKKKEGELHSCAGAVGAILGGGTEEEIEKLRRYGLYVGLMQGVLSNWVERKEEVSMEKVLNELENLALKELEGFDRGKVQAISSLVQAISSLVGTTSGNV

T4 sequence (A0A514TNS4 71-366): as the sequence (A0A514TNS4 71-366) above
T3 sequence (A0A514TNQ6 70-365): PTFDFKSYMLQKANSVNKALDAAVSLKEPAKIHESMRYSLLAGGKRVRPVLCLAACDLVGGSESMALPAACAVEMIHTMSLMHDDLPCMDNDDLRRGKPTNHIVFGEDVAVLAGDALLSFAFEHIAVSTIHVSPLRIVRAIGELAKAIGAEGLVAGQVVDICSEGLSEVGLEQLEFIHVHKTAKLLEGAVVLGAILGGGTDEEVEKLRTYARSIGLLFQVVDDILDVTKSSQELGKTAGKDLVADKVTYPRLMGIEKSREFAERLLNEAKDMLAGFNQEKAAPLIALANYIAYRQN
T2 sequence (A0A514TNQ6 70-365): as above
T2 sequence (A0A514TNK9 42-312 partner): as the sequence (A0A514TNK9 42-312 partner) above

SMILES	LC-MS/MS product analysis (PtFPPS1)	LC-MS/MS product analysis [1]	LC-MS/MS product analysis (PtGPPS1.LSU)	LC-MS/MS product analysis (PtGPPS2.LSU)	LC-MS/MS product analysis [2]
CC(C)=CCOP(=O)(O)OP(=O)(O)O [DMAPP]	PtFPPS1 catalyzes the condensation of IPP and DMAPP to FPP and traces of GGPP	incubated with IPP and DMAPP either in the presence (black bars) or absence	produced GPP and GGPP when tested with IPP and DMAPP as substrates	produced GPP and GGPP when tested with IPP and DMAPP as substrates	incubated with IPP and DMAPP either in the presence (black bars) or absence
C=C(C)CCOP(=O)(O)OP(=O)(O)O [IPP]	PtFPPS1 catalyzes the condensation of IPP and DMAPP to FPP and traces of GGPP	incubated with IPP and DMAPP either in the presence (black bars) or absence	produced GPP and GGPP when tested with IPP and DMAPP as substrates	produced GPP and GGPP when tested with IPP and DMAPP as substrates	incubated with IPP and DMAPP either in the presence (black bars) or absence
